Each structure is given as a SMILES string. Converted amounts (≈) assume the structure as drawn.

The values that follow come from DBAASP.

Holding throughout (assay): ≥ marks a high value that may be exact or a test limit, other limits are often not marked, values filed in µg/mL are converted to µM
Assay [1] relates to Aspergillus awamori KCTC 6915.
Assay [2] relates to Aspergillus flavus KCTC 6905.
Assay [3] has as its system Aspergillus fumigatus KCTC 6145.
Assay [4] concerns Aspergillus parasiticus KCTC 6598.
Assay [5] relates to Bacillus subtilis KCTC 1998.
The subject of assay [6] is Candida albicans KCTC 7270.
In assay [7] the test system is Escherichia coli ATCC 25922.
Assay [8] concerns Listeria monocytogenes KCTC 3710.
Assay [9] concerns Proteus vulgaris KCTC 2433.
Assay [10] has as its system Pseudomonas aeruginosa ATCC 15692.
Assay [11] relates to Salmonella typhimurium KCTC 1926.
Assay [12] deals with Staphylococcus aureus ATCC 25923.
The test system of assay [13] is Staphylococcus epidermidis ATCC 12228.
Assay [14] has as its system Trichosporon beigelii KCTC 7707.
Assay [15] has as its system Aspergillus flavus ATCC 24109.
The test system of assay [16] is Aspergillus fumigatus ATCC 1022.
The subject of assay [17] is Aspergillus niger ATCC 9142.
For assay [18], the system named is Bacillus subtilis ATCC 6051.
Assay [19] deals with Candida albicans ATCC 10231.
For assay [20], the system named is Candida glabrata ATCC 90030.
The test system of assay [21] is Candida krusei ATCC 28870.
Assay [22] concerns Cryptococcus neoformans ATCC 2517.
Assay [23] deals with Enterococcus faecalis ATCC 29212.
Assay [24] relates to Microsporum canis PTCC 5069.
Assay [25] deals with Pseudomonas aeruginosa ATCC 27853.
Assay [26] has as its system Saccharomyces cerevisiae PTCC 5052.
The subject of assay [27] is Trichophyton mentagrophytes ATCC 32510.
Assay [28] relates to Klebsiella pneumoniae ATCC 700603.
Assay [29] relates to Pseudomonas aeruginosa PA006.
The subject of assay [30] is Pseudomonas aeruginosa PAO1.
For assay [31], the system named is Pseudomonas aeruginosa Pa1-SA2.
The test system of assay [32] is Pseudomonas aeruginosa Pa4-SA2.
Assay [33] relates to Salmonella enterica subsp. enterica serovar Typhimurium ATCC 14028.
The subject of assay [34] is Staphylococcus aureus ATCC 29313.

On to `CC[C@H](C)[C@H](NC(=O)[C@H](CCCCN)NC(=O)[C@H](CCCCN)NC(=O)[C@H](C)NC(=O)[C@H](CC(C)C)NC(=O)[C@H](CCCCN)NC(=O)[C@H](CCCCN)NC(=O)[C@H](CC(C)C)NC(=O)[C@H](CCCN=C(N)N)NC(=O)[C@H](CCCCN)NC(=O)[C@H](C)N)C(=O)N[C@@H](Cc1c[nH]c2ccccc12)C(=O)N[C@@H](CCCCN)C(=O)N[C@@H](Cc1c[nH]c2ccccc12)C(=O)N[C@@H](CC(C)C)C(N)=O` [AKRLKKLAKKIWKWL], for which the MIC (usually the lowest concentration found to suppress growth) in assay [1] is not below 64 µM; in assay [2], not below 64 µM; in [3], 16 µM (≈ 30.6 µg/mL); in assay [4], 16 µM (≈ 30.6 µg/mL); in [5], 8 µM (≈ 15.3 µg/mL); in assay [6], 16 µM (≈ 30.6 µg/mL). Moreover, the MIC was 32 µM (≈ 61.1 µg/mL) in assay [7]; 16 µM (≈ 30.6 µg/mL) in assay [8]; 11.3 µM (≈ 21.6 µg/mL) in assay [9]; not below 32 µM in assay [10]; 8 µM (≈ 15.3 µg/mL) in assay [11]; 16 µM (≈ 30.6 µg/mL) in [12]. Besides, the MIC in assay [13] was 8 µM (≈ 15.3 µg/mL); in assay [14], not below 128 µM.

For `CC[C@H](C)[C@H](NC(=O)[C@H](CCCCN)NC(=O)[C@H](CCCCN)NC(=O)[C@@H](NC(=O)[C@@H](NC(=O)[C@H](CC(=O)O)NC(=O)[C@H](Cc1ccccc1)NC(=O)[C@H](CC(C)C)NC(=O)CN)[C@@H](C)CC)[C@@H](C)CC)C(=O)N[C@@H](C)C(=O)N[C@@H](CCC(=O)O)C(=O)N[C@@H](CO)C(=O)N[C@@H](Cc1ccccc1)C(=O)O` [GLFDIIKKIAESF], the minimum inhibitory concentration (MIC) was not below 675 µM in assay [15]; not below 84.4 µM in assay [16]; not below 675 µM in assay [17]; not below 172 µM in assay [18]; 84.4 µM (≈ 125 µg/mL) in assay [19]; not below 675 µM in assay [20]. Besides, the MIC in assay [21] is not below 338 µM; in assay [22], not below 675 µM; in assay [23], 84.4 µM (≈ 125 µg/mL); in assay [7] it was 84.4 µM (≈ 125 µg/mL); in assay [24], not below 675 µM; in assay [25], more than 675 µM. Besides, the MIC was not below 84.4 µM in assay [26], more than 675 µM in assay [12] and not below 675 µM in [27].

For `CC[C@H](C)[C@H](NC(=O)[C@H](CCCCN)NC(=O)CNC(=O)[C@H](CCSC)NC(=O)[C@H](C)NC(=O)[C@H](Cc1cnc[nH]1)NC(=O)[C@H](C)NC(=O)[C@@H](NC(=O)[C@H](CC(C)C)NC(=O)[C@H](CCC(N)=O)NC(=O)[C@H](CCCCN)NC(=O)CNC(=O)[C@H](C)NC(=O)CNC(=O)[C@H](CCCCN)NC(=O)[C@@H](NC(=O)[C@@H](NC(=O)[C@H](CC(=O)O)NC(=O)[C@H](Cc1ccccc1)NC(=O)[C@@H](NC(=O)CN)C(C)C)[C@@H](C)CC)[C@@H](C)CC)[C@@H](C)CC)C(=O)N[C@@H](C)C(=O)N[C@@H](CCC(=O)O)C(=O)N[C@@H](CCCCN)C(=O)N[C@H](C(N)=O)C(C)C` [GVFDIIKGAGKQLIAHAMGKIAEKV], the MIC was 77.1 µM (≈ 200 µg/mL) in [7]; 308 µM (≈ 800 µg/mL) in assay [28]; more than 197 µM in [25]; 6.17 µM (≈ 16 µg/mL) in assay [29]; 197 µM (≈ 512 µg/mL) in assay [30]; not below 197 µM in assay [31]. The figures for the MIC in [32], in assay [33] and in assay [34] were not below 98.6 µM, 308 µM (≈ 800 µg/mL) and not below 308 µM, respectively.
